Source: US20250073184A1, “CANNABIGEROQUINONE COMPOUNDS, COMPOSITIONS INCLUDING SUCH COMPOUNDS, AND USES OF SUCH COMPOUNDS AND COMPOSITIONS” (Juva Life, Inc., priority 2021, published 2025)
Where two headings read alike, the source gives them in different places.

What was measured:
IL-6 = IL-6 secretion assay in human PBMCs (LPS, ELISA); assay type: cell-based; details: read-out: Inhibitory Activity EC50, IL6
Protocol: Fetal bovine serum (FBS) was obtained from ThermoFisher (Cat #16000044). • Other reagents: 96 well TC plates were obtained from ThermoFisher (Cat #07-2000-90). LPS was obtained from Sigma (Cat #L3024).
IL-6 was assessed using a standard ELISA protocol. Cryopreserved PBMCs were thawed in a water bath and transferred to 50 mL polypropylene tubes. The cells were washed two times with 25 mL of RPMI medium supplemented with 5% of heat-inactivated FBS and re-suspended at a density of 4.5^^6 cells/mL. The cells were plated into 96 well TC late (100 uL/well). Serially diluted compound was added to the cells in duplicate wells for each concentration. Control wells received DMSO only (0.3% final). The cells were pre-incubated with compound for 1 hr. After pre-incubation, the cells were stimulated by LPS (100 ng/mL) for 6 hr. Control samples with and without LPS in the absence of compound were assembled in each test plate. IL-6 was detected in media supernatants by using a sandwich anti-IL-6 ELISA kit (BD Biosciences) according to protocol provided by the manufacturer. ELISA readout (optical density at 450 nm) is commensurable with the amount of IL-6 produced by the cells. Assay window was determined in each experiment by comparing average OD450 values in stimulated and un-stimulated samples in the absence of compound. ELISA calibration was performed in each detection plate using serially diluted recombinant human IL-6, to ensure that OD450 values for all test samples were within linear range of detection.%-Inhibition by compound was calculated using following equation.
where OD450100% is optical density in control samples stimulated with LPS without compound, OD4500% is optical density in unstimulated control samples, and OD450compound is optical density in a sample stimulated with LPS in the presence of compound.
The calculated %-Inh values were plotted against compound concentration. To determine IC50 values, dose-response curves were fitted by a 4-parameter sigmoid inhibition model using XLFit® software (IDBS).

[1] = molecular target: T1, cannabinoid receptor 1 (CNR1) (Homo sapiens, UniProt P21554); assay: CB1 receptor agonist assay (cAMP Hunter eXpress, CNR1 CHO-K1 cells); assay type: cell-based; details: agonist mode, Forskolin-stimulated cAMP
T1 construct: host or cells: CHO-K1
Protocol: The assays were performed in cAMP Hunter eXpress cells engineered to overexpress naturally Gi/Go-coupled wildtype cannabinoid receptor 1 (CNR1) or cannabinoid receptor 2 (CNR2) in CHO-K1 cell type. In these cells, CB1 and/or […] agonists inhibit production of intracellular cAMP in response to stimulation with Forskolin. cAMP levels are determined using luminogenic detection reagents provided with the Hunter eXpress cAMP detection kit.
• Assay ready CNR1 CHO-K1 cells were obtained from Eurofins/Discover X, cat #95-0071E2 • Assay ready CNR2 CHO-K1 cells were obtained from Eurofins/Discover X, cat #95-0183E2 • Hunter eXpress cAMP detection kit was also from Discover X. The kit includes all cAMP detection reagents, Forskolin, complete cell plating medium and cell assay buffer.
The Assay-Ready CNR1 CHO-K1 or CNR2 CHO-K1 cells were thawed and re-suspended in pre-warmed Assay Complete plating medium and inoculated into 96 well plate at a density of 30,000 cells in 100 μL. The plates with cells were incubated for 24 h at 37° C. in 5% CO2. […] The cells were stimulated with the Forskolin/compound buffer for 30 min. […] The plate was read on Biotek Synergy Neo2 reader in luminescent mode. […] Relative luminescence units (RLUs) were plotted against compound concentration to determine apparent EC50 values of the agonist compounds.

[2] = PBMC, human PBMCs, LPS 100 ng/mL 6 hr

T1 sequence (P21554 whole entry): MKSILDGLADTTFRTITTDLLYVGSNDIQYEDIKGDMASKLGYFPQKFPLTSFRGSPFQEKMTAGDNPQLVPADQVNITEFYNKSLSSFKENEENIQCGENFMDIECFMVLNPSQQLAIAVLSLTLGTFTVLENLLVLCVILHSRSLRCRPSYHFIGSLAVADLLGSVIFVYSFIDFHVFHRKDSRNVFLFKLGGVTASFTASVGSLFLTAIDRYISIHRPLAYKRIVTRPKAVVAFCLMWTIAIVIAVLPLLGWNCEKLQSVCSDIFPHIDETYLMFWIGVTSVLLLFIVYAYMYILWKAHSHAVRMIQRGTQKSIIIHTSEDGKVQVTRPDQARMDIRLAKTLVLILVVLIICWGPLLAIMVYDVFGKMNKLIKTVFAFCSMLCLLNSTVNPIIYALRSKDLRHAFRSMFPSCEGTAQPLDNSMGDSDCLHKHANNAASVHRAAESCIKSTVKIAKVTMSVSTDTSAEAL

Compound | EC50 (IL-6; [2]) [µM] | also measured
CCCCCc1cc(O)c(C/C=C(\C)CCC=C(C)C)c(O)c1O [Formula XXXIX] | – | EC50 (IL-6; Homo sapiens, PBMC, 6 h): > 10 µM
CCCCCc1cc(OC)c(C/C=C(\C)CCC=C(C)C)c(O)c1OC [Formula XLII] | > 10 | –
CCCCCC1=C(NC)C(=O)C(C/C=C(\C)CCC=C(C)C)=C(O)C1=O [Formula XLI] | > 10 | –
Cannabigerol Quinone [Formula VI] | – | EC50 (IL-6; human PBMCs, LPS 100 ng/mL 6 hr): 17.9 µM; IC50 [1]: > 3 µM
CCCCCc1cc(OC(C)=O)c(C/C=C(\C)CCC=C(C)C)c(O)c1OC(C)=O [Formula XLIII] | > 10 | –
